The target of assay [1] is human Na,K-ATPase α1β1FXYD1 (Homo sapiens (Human), UniProt P05023). The format is biochemical.
The target of assay [2] is human Na,K-ATPase α2β1FXYD1 (Homo sapiens, UniProt P50993). Format: biochemical.
Assay [3] has as its system human Na,K-ATPase α2β1FXYD1. Format: biochemical.
In assay [4] the target is human Na,K-ATPase α2β2FXYD1 (Homo sapiens (Human), UniProt P50993). Format: biochemical.
Assay [5] has as its target human Na,K-ATPase α2β3FXYD1 (Homo sapiens (Human), UniProt P50993+P54709). Description: biochemical. Format: biochemical.
For assay [6], the system named is basal IOP in rabbits. Kind of assay: Basal IOP in rabbits, topical administration. The format is in vivo, rabbit.

Each structure is given as a SMILES string. Where two headings read alike, the source gives them in different places.

Take `CC1CN(CC2CC(C)(C)C2)CCC(O[C@@H]2[C@H](C)O[C@@H](O[C@@H]3[C@H](C)O[C@@H](O[C@H]4CC[C@@]5(C)C(CCC6C5C[C@H](O)[C@]5(C)[C@@H](C7=CC(=O)OC7)CC[C@]65O)C4)C[C@@H]3O)C[C@@H]2O)O1` (stereo partly drawn) [DMDMcB, 4-((3S,5R,8R,9S10S,12R,13S,14S,17R)-3-(((2S,4S,5R,6R)-5-(((2S,4S,5S,6R)-5-((4-((3,3-dimethylcyclobutyl)methyl)-2-methyl-1,4-oxazepan-7-yl)oxy)-4-hydroxy-6-methyltetrahydro-2H-pyran-2-yl)oxy)-4-hydroxy-6-methyltetrahydro-2H-pyran-2-yl)oxy)-12,14-dihydroxy-10,13-dimethylhexadecahydro-1H-cyclopenta[a]phenanthren-17-yl)furan-2(5H)-one]: the Ki in assay [1] (read-out: Ki in nM ± SEM α1β1) worked out at 31.6 ± 0.5 nM; in assay [2] (read-out: Ki in nM ± SEM α2β1) it was 8.6 ± 1.4 nM; in assay [4] (read-out: Ki in nM ± SEM α2β2), 5.1 ± 0.5 nM; in assay [5] (read-out: Ki in nM ± SEM α2β3) it was 3.9 ± 0.7 nM. Further, in assay [3], the “Selectivity Ki ratio α1β1/α2β1” value is on record as 3.69. Further, the “Selectivity Ki ratio α1β1/α2β2” value in assay [4] is listed as 6.16. Besides, in assay [5], the “Selectivity Ki ratio α1β1/α2β3” value amounted to 8.19. Further, in assay [5], the “selectivity for α2β3 over α1β1 (Ki α1β1:α2β3 ratio)” value was 10-12 fold.

Consider `CC1CN(CS(C)(=O)=O)CCC(O[C@@H]2C(C)O[C@@H](OC3C(C)OC(O[C@H]4CC[C@@]5(C)C(CCC6C5CC(O)[C@]5(C)[C@@H](C7=CC(=O)OC7)CC[C@]65O)C4)C[C@@H]3O)C[C@@H]2O)O1` (stereo in doubt) [DMSM, 4-((3S,5R,8R,9S,10S,12R,13S,14S,17R)-12,14-dihydroxy-3-(((2S,4S,5R,6R)-4-hydroxy-5-(((2S,4S,5S,6R)-4-hydroxy-6-methyl-5-((2-methyl-4-((methylsulfonyl)methyl)-1,4-oxazepan-7-yl)oxy)tetrahydro-2H-pyran-2-yl)oxy)-6-methyltetrahydro-2H-pyran-2-yl)oxy)-10,13-dimethylhexadecahydro-1H-cyclopenta[a]phenanthren-17-yl)furan-2(5H)-one], for which the Ki stood at 944 ± 123 nM in assay [1] (read-out: Ki in nM ± SEM α1β1), 137 ± 9.8 nM in assay [2] (read-out: Ki in nM ± SEM α2β1), 123 ± 7.3 nM in assay [4] (read-out: Ki in nM ± SEM α2β2) and 89 nM in assay [5] (read-out: Ki in nM ± SEM α2β3). Also, the “Selectivity Ki ratio α1β1/α2β1” value in assay [3] is 6.9. The “Selectivity Ki ratio α1β1/α2β2” value in assay [4] was 7.7. Also, in assay [5], the “Selectivity Ki ratio α1β1/α2β3” value stood at 10.6.

As to `CC1CN(C2CC2)CCC(O[C@@H]2[C@H](C)O[C@@H](O[C@@H]3[C@H](C)O[C@@H](O[C@H]4CC[C@@]5(C)C(CCC6C5C[C@H](O)[C@]5(C)[C@@H](C7=CC(=O)OC7)CC[C@]65O)C4)C[C@@H]3O)C[C@@H]2O)O1` (stereo partly drawn) [DcP, 4-((3S,5R,8R,9S,10S,12R,13S,14S,17R)-3-(((2R,4S,5S,6R)-5-(((2S,4S,5S,6R)-5((4-cyclopropyl-2-methyl-1,4-oxazepan-7-yl)oxy)-4-hydroxy-6-methyltetrahydro-2H-pyran-2-yl)oxy)-4-hydroxy-6-methyltetrahydro-2H-pyran-2-yl)oxy)-12,14-dihydroxy-10,13-dimethythylhexadecahydro-1H-cyclopenta[a]phenanthren-17-yl)furan-2(5H)-one], the Ki in assay [1] (read-out: Ki in nM ± SEM α1β1) was determined as 109 ± 6.2 nM; in assay [2] (read-out: Ki in nM ± SEM α2β1), 14.6 ± 11.6 nM; in assay [4] (read-out: Ki in nM ± SEM α2β2) it was 13 ± 1.3 nM; in assay [5] (read-out: Ki in nM ± SEM α2β3) it was 8.1 ± 1.36 nM. In assay [3], the “Selectivity Ki ratio α1β1/α2β1” value came to 7.5. Further, the “Selectivity Ki ratio α1β1/α2β2” value in assay [4] came to 8.5. For the same compound, the “Selectivity Ki ratio α1β1/α2β3” value in assay [5] is 13.4.

With `CCCN1CCC(O[C@@H]2[C@H](C)O[C@@H](O[C@@H]3[C@H](C)O[C@@H](O[C@H]4CC[C@@]5(C)C(CCC6C5C[C@H](O)[C@]5(C)[C@@H](C7=CC(=O)OC7)CC[C@]65O)C4)C[C@@H]3O)C[C@@H]2O)OC(C)C1` (some centres unmarked) [DP], the Ki in assay [1] (read-out: Ki in nM ± SEM α1β1) came to 87.7 ± 7.9 nM; in assay [2] (read-out: Ki in nM ± SEM α2β1) it was 18.3 ± 1.68 nM; in assay [4] (read-out: Ki in nM ± SEM α2β2), 10.5 ± 1.8 nM; in assay [5] (read-out: Ki in nM ± SEM α2β3), 9.8 ± 1.1 nM. Also, the “Selectivity Ki ratio α1β1/α2β1” value in assay [3] worked out at 4.8. Moreover, the “Selectivity Ki ratio α1β1/α2β2” value in assay [4] was 8.3. In addition, the “Selectivity Ki ratio α1β1/α2β3” value in assay [5] turned out to be 8.8.

For the compound `[O]=[V]([OH])([OH])[OH]` [Vanadate, vanadate, reference compound], the Ki in assay [1] (read-out: apparent vanadate affinity α1β1) was determined as 480 nM; in assay [2] (Example 2, vanadate titration, read-out: apparent vanadate affinity α2β1), 3500 nM; in assay [4] (read-out: apparent vanadate affinity α2β2) it was 34000 nM; in assay [5] (read-out: apparent vanadate affinity α2β3), 1900 nM.

Take `CC1CN(CCS(N)(=O)=O)CCC(O[C@@H]2C(C)O[C@@H](OC3C(C)OC(O[C@H]4CC[C@@]5(C)C(CCC6C5CC(O)[C@]5(C)[C@@H](C7=CC(=O)OC7)CC[C@]65O)C4)C[C@@H]3O)C[C@@H]2O)O1` (stereo in doubt) [DESA, 2-(7-(((2R,3S,4S,6S)-6-(((2R,3R,4S,6S)-6-(((3S,5R,8R,9S,10S,12R,13S,14S,17R)-12,14-dihydroxy-10,13-dimethyl-17-(5-oxo-2,5-dihydrofuran-3-yl)hexadecahydro-1H-cyclopenta[a]phenanthren-3-yl)oxy)-4-hydroxy-2-methyltetrahydro-2H-pyran-3-yl)oxy)-4-hydroxy-2-methyltetrahydro-2H-pyran-3-yl)oxy)-2-methyl-1,4-oxazepan-4-yl)ethanesulfonamide]: the Ki worked out at 301 ± 23 nM in assay [1] (read-out: Ki in nM ± SEM α1β1), 38.9 ± 2.2 nM in assay [2] (read-out: Ki in nM ± SEM α2β1), 31.5 ± 4.4 nM in assay [4] (read-out: Ki in nM ± SEM α2β2) and 20.1 ± 0.9 nM in assay [5] (read-out: Ki in nM ± SEM α2β3). Further, in assay [3], the “Selectivity Ki ratio α1β1/α2β1” value worked out at 7.7. In addition, in assay [4], the “Selectivity Ki ratio α1β1/α2β2” value stood at 9.5. Besides, the “Selectivity Ki ratio α1β1/α2β3” value in assay [5] is given as 15.

Turning to `CC1CN(C(C)(C)C)CCC(O[C@@H]2[C@H](C)O[C@@H](O[C@@H]3[C@H](C)O[C@@H](O[C@H]4CC[C@@]5(C)C(CCC6C5C[C@H](O)[C@]5(C)[C@@H](C7=CC(=O)OC7)CC[C@]65O)C4)C[C@@H]3O)C[C@@H]2O)O1` (some centres unmarked) [DtB], the Ki was found to be 135 nM in assay [1] (read-out: Ki in nM ± SEM α1β1), 21.6 ± 5.6 nM in assay [2] (read-out: Ki in nM ± SEM α2β1), 18.4 ± 1.1 nM in assay [4] (read-out: Ki in nM ± SEM α2β2) and 16.3 ± 0.28 nM in assay [5] (read-out: Ki in nM ± SEM α2β3). Also, the “Selectivity Ki ratio α1β1/α2β1” value in assay [3] is 6.2. In addition, the “Selectivity Ki ratio α1β1/α2β2” value in assay [4] came out at 7.3. Besides, the “Selectivity Ki ratio α1β1/α2β3” value in assay [5] is recorded as 8.2.

With `CC1CN(Cc2ccccc2)CCC(O[C@@H]2[C@H](C)O[C@@H](O[C@@H]3[C@H](C)O[C@@H](O[C@H]4CC[C@@]5(C)C(CCC6C5C[C@H](O)[C@]5(C)[C@@H](C7=CC(=O)OC7)CC[C@]65O)C4)C[C@@H]3O)C[C@@H]2O)O1` (stereo partly drawn) [DBz, 4-(3S,5R,8R,9S,10S,12R,13S,14S,17R)-3-(((2S,4S,5R,6R)-5-(((2S,4S,5S,6R)-5 ((4-benzyl-2-methyl-1,4-oxazepan-7-yl)oxy)-4-hydroxy-6-methyltetrahydro-2H-pyran-2-ypoxy)-4-hydroxy-6-methyltetrahydro-2H-pyran-2-yl)oxy)-12,14-dihydroxy-10,13-dimethythexadecahydro-1H-cyclopenta[a]phenanthren-17-yl)furan-2(5H)-one], the Ki in assay [1] (read-out: Ki in nM ± SEM α1β1) stood at 57.9 ± 15.5 nM; in assay [2] (read-out: Ki in nM ± SEM α2β1) it was 10.1 ± 2.2 nM; in assay [4] (read-out: Ki in nM ± SEM α2β2), 6.8 ± 1.2 nM; in assay [5] (read-out: Ki in nM ± SEM α2β3), 5.6 ± 1.6 nM. Further, the “Selectivity Ki ratio α1β1/α2β1” value in assay [3] was 5.7. Also, the “Selectivity Ki ratio α1β1/α2β2” value in assay [4] was found to be 8.5. Further, the “Selectivity Ki ratio α1β1/α2β3” value in assay [5] is on record as 10.3. For the same compound, the “selectivity for α2β3 over α1β1 (Ki α1β1:α2β3 ratio)” value in assay [5] is 10-12 fold.

With `CCN1CCC(O[C@@H]2[C@H](C)O[C@@H](O[C@@H]3[C@H](C)O[C@@H](O[C@H]4CC[C@@]5(C)C(CCC6C5C[C@H](O)[C@]5(C)[C@@H](C7=CC(=O)OC7)CC[C@]65O)C4)C[C@@H]3O)C[C@@H]2O)OC(C)C1` (some centres unmarked) [DEt], the Ki in assay [1] (read-out: Ki in nM ± SEM α1β1) came to 138 ± 12.6 nM; in assay [2] (read-out: Ki in nM ± SEM α2β1), 23.2 ± 0.9 nM; in assay [4] (read-out: Ki in nM ± SEM α2β2) it was 16.4 ± 1.6 nM; in assay [5] (read-out: Ki in nM ± SEM α2β3), 14.4 ± 1.27 nM. The “Selectivity Ki ratio α1β1/α2β1” value in assay [3] came out at 5.9. The “Selectivity Ki ratio α1β1/α2β2” value in assay [4] stood at 8.3. For the same compound, the “Selectivity Ki ratio α1β1/α2β3” value in assay [5] is 9.5.

As to `CC(=O)O[C@H]1C[C@H](O[C@H]2[C@@H](OC(C)=O)C[C@H](O[C@H]3CC[C@@]4(C)[C@H](CC[C@@H]5[C@@H]4C[C@@H](OC(C)=O)[C@]4(C)[C@@H](C6=CC(=O)OC6)CC[C@]54O)C3)O[C@@H]2C)O[C@H](C)[C@H]1OC1CCN(C2CCC2)CC(C)O1` (stereo partly drawn) [TrisAcDcB, (2R,3R,4S,6R)-6-(((3S,5R,8R,9S,10S,12R,13S,14S,17R)-12-acetoxy-14-hydroxy-10,13-dimethyl-17-(5-oxo-2,5-dihydrofuran-3-yl)hexadecahydro-1H-cyclopenta[a]phenanthren-3-yl)oxy)-3-(((2S,4S,5R,6R)-4-acetoxy-5-((4-cyclobutyl-2-methyl-1,4-oxazepam-7-yl)oxy)-6-methyltetrahydro-2H-pyran-2-yl)oxy)-2-methyltetrahydro-2H-pyran-4-yl acetate], the “Ki of α1β1 higher than that of DcB” value in assay [1] is ~100 fold. Further, the Ki in assay [1] (read-out: Ki of α1β1FXYD1) amounted to 13200 ± 6500 nM. For the same compound, in assay [6] (0.05, 0.1, 0.2 mM), the “time of return of IOP to the control level” value was found to be 12 h and the “time to minimum IOP” value was 5 to 6 h. For the same compound, the “maximal effect on IOP compared with parent DcB” value in assay [6] (0.05-0.2 mM prodrug) was “essentially equal to that produced by the parent DcB”. For the same compound, in assay [6] (from 15-16 mmHg, 0.05, 0.1, 0.2 mM), the “minimum IOP” value was found to be 12 mmHg. Moreover, the “onset of effect on basal IOP” value in assay [6] (one 30 μl drop, 0.05, 0.1, 0.2 mM) is listed as “no effect was observed at the first four hours”. Also, the “Ki of α2β1 higher than that of DcB” value in assay [2] is recorded as ~300 fold. Besides, the Ki in assay [2] (read-out: Ki of α2β1FXYD1) stood at 2500 ± 490 nM.

As for `CC(C)OC(=O)CCC/C=C\C[C@@H]1[C@@H](CC[C@@H](O)CCc2ccccc2)[C@H](O)C[C@@H]1O` [Latanoprost, reference compound], the “time after which IOP returned to the control value” in assay [6] (1 mM DcB, 0.005% Latanoprost) came to 12 h. For the same compound, the “steady-state IOP as % of the unchanged control values” in assay [6] (after 3-8 hours) is 85%. Also, in assay [6] (after 3-8 hours, basal IOP 17-18 mmHg, 1 mM DcB, 0.005% Latanoprost), the “steady-state IOP lower than basal IOP” value is given as 2.6±0.11 mmHg.

For the origin of these results see US10668094B2, “Selective inhibitors of Alpha2-containing isoforms of Na,K-ATPase and use thereof for reduction of intraocular pressure” (Yeda Research and Development Co. Ltd., priority 2015, dated 2020).
